In patent US20110045101A1, “FUNGICIDAL SUBSTITUTED AZOLES” (E.I. Du Pont De Nemours and Company, priority 2009, published 2011):
Marks after values point to notes of the source that are not given here.

Columns and labels:
Format in all cases: in vivo
Conditions in all cases: 100 = 100% disease control
[1] = system: Alternaria solani; assay: Test D: tomato early blight, sprayed the day before inoculation, visual disease rating
Summary of the method: (§1)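 Compounds were dissolved in acetone (3% of final volume), then suspended in 50/50 acetone/purified water with 250 ppm Trem® 014 surfactant. Suspensions at 200 ppm (some at 40 ppm) were sprayed to run-off, 200 ppm being equivalent to 500 g/ha.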

[2] = system: Septoria tritici; assay: Test G: wheat leaf blotch on wheat seedlings, sprayed the day before inoculation, visual disease rating
Summary of the method: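 Visual disease ratings taken 19 days after transfer to a 20° C growth chamber, following 48 h in saturated atmosphere at 24° C. Seedlings had been sprayed to run-off one day before spore inoculation. Dose 200 ppm, or 40 ppm where starred.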

[3] = system: Puccinia recondita f. sp. tritici; assay: Test I: wheat leaf rust on wheat seedlings, sprayed the day before inoculation, visual disease rating
Summary of the method: as §1

[4] = system: Erysiphe graminis f. sp. tritici; assay: Test J: wheat powdery mildew on wheat seedlings, sprayed the day before inoculation, visual disease rating
Summary of the method: as §1

[5] = system: Botrytis cinerea; assay: Test C: tomato Botrytis on tomato seedlings, sprayed the day before inoculation, visual disease rating
Summary of the method: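 Compounds were dissolved in acetone (3% of final volume), then suspended in 50/50 acetone/purified water containing 250 ppm polyhydric alcohol ester surfactant. Suspensions were sprayed to run-off on tomato seedlings at 200 ppm, equivalent to 500 g/ha, or at 40 ppm where marked.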

[6] = system: Septoria nodorum; assay: Test F: wheat glume blotch on wheat seedlings, sprayed the day before inoculation, visual disease rating
Summary of the method: as §1

[7] = 200 ppm, 0 = no control relative to controls
[8] = 40 ppm (marked *), 0 = no control

Row | SMILES | Test D disease control rating ([1]; 200 ppm, 0 = no control) [%] | Test G disease control rating ([2]; 200 ppm, 0 = no control) [%] | Test I disease control rating ([3]; 200 ppm, 0 = no control) [%] | Test J disease control rating ([4]; 200 ppm, 0 = no control) [%] | Test C disease control rating ([5]; 200 ppm, 0 = no control) [%] | Test F disease control rating ([6]; 200 ppm, 0 = no control) [%] | Test D disease control rating [1, 7] [%] | Test G disease control rating [2, 7] [%] | Test I disease control rating [3, 7] [%] | Test J disease control rating [4, 7] [%] | Test C disease control rating [5, 7] [%] | Test F disease control rating [6, 7] [%] | other results
1 | Cc1ccc(-n2c(Br)nc(Cl)c2-c2c(F)cccc2Cl)cc1 [compound 186] | 88 | 97 | 100 | 100 | 98 | 0 | – | – | – | – | – | – | –
2 | CC(C)c1nc(Cl)c(-c2c(F)cccc2F)n1-c1ccc(Cl)cc1 [compound 116] | – | – | – | – | – | – | – | – | – | – | – | – | Test D disease control rating ([1]; 40 ppm (marked *)): 0* %; Test G disease control rating ([2]; 40 ppm (marked *)): 0* %; Test I disease control rating ([3]; 40 ppm (marked *)): 0* %; Test J disease control rating ([4]; 40 ppm (marked *)): 0* %; Test C disease control rating ([5]; 40 ppm (marked *)): 0* %; Test F disease control rating ([6]; 40 ppm (marked *)): 0* %
3 | COc1ccc(F)c(-c2c(Cl)nc(Cl)n2-c2cccc(F)c2)c1F [compound 279] | 100 | 93 | 100 | 100 | 100 | 100 | – | – | – | – | – | – | –
4 | Cn1nc(Br)c(-c2c(F)cccc2F)c1-c1ccc(Cl)cc1 [Compound 125, 3-bromo-5-(4-chlorophenyl)-4-(2,6-difluorophenyl)-1-methyl-1H-pyrazole] | – | – | – | – | – | – | – | – | – | – | – | – | pest or weed control at 200 ppm ([1]; Alternaria solani, 168 h, 200 ppm, 0 = no control relative to controls): 100%; pest or weed control at 200 ppm ([2]; Zymoseptoria tritici, 504 h, 200 ppm, 0 = no control relative to controls): 92%; pest or weed control at 200 ppm ([3]; Puccinia recondita, 168 h, 200 ppm, 0 = no control relative to controls): 91%; pest or weed control at 200 ppm ([4]; Blumeria graminis, 168 h, 200 ppm, 0 = no control relative to controls): 100%; pest or weed control at 200 ppm ([5]; Botrytis cinerea, 120 h, 200 ppm, 0 = no control relative to controls): 98%; pest or weed control at 200 ppm ([6]; Parastagonospora nodorum, 264 h, 200 ppm, 0 = no control relative to controls): 0%
5 | Fc1ccc(-n2c(Cl)nc(Cl)c2-c2c(F)ccc(F)c2Cl)cc1 [compound 196] | 100 | 92 | 100 | 97 | 99 | 0 | – | – | – | – | – | – | –
6 | COc1ccc(-c2c(Cl)nc(C)n2-c2ccc(Cl)cc2)c(F)c1C [compound 114] | – | – | – | – | – | – | 0 | 95 | 41 | 72 | 93 | 0 | –
7 | COc1cc(F)c(-c2c(C)ncn2-c2ccc(Cl)nc2)c(F)c1 [compound 254] | 100 | 95 | 99 | 98 | 100 | 0 | – | – | – | – | – | – | –
8 | Fc1ccc(Br)c(F)c1-c1c(Cl)ncn1-c1ccc(Cl)cc1 [compound 75] | – | – | – | – | – | – | 93 | 95 | 77 | 98 | 98 | 0 | –
9 | Cc1nc(Br)n(-c2c(F)cc(F)cc2F)c1-c1ccc(Cl)cc1 [compound 445] | – | – | – | – | – | – | – | 95 | – | – | – | – | Test D disease control rating [1, 8]: 100* %; Test I disease control rating [3, 8]: 97* %; Test J disease control rating [4, 8]: 98* %; Test C disease control rating [5, 8]: 97* %; Test F disease control rating [6, 8]: 92* %
10 | Cc1ccc(-n2c(Br)nc(Cl)c2-c2c(F)ccc(F)c2F)cc1C [compound 224] | 51 | 90 | 80 | 98 | 93 | 0 | – | – | – | – | – | – | –
11 | COc1cc(F)c(-c2c(Cl)nc(Br)n2-c2ccc(Cl)cc2)c(Cl)c1 [compound 171] | 100 | 98 | 98 | 99 | 99 | 100 | – | – | – | – | – | – | –
12 | CCc1ccc(-n2c(Cl)nc(Cl)c2-c2c(F)ccc(OC)c2F)cc1 [compound 442] | – | – | – | – | – | – | 99 | 95 | 99 | 100 | 99 | 0 | –
13 | Cc1nc(Cl)c(-c2c(F)ccc(Cl)c2F)n1-c1ccc(Cl)cc1 [compound 127] | – | – | – | – | – | – | 100 | 95 | 100 | 100 | 99 | 98 | –
14 | Fc1ccc(-n2c(Br)nc(Cl)c2-c2c(F)ccc(F)c2Cl)cc1 [compound 195] | 100 | 94 | 100 | 94 | 99 | 64 | – | – | – | – | – | – | –
15 | Cc1nc(Cl)n(-c2ccc(Cl)c(F)c2)c1-c1c(F)ccc(F)c1F [compound 389] | – | – | – | – | – | – | 100 | 91 | 99 | 98 | 98 | 0 | –
16 | Cc1ncn(-c2ccc(Cl)c(F)c2)c1-c1cccnc1 [compound 252] | 0 | 13 | 0 | 0 | 15 | 0 | – | – | – | – | – | – | –
17 | Cc1nc(Cl)c(-c2ccc(F)cc2Cl)n1-c1ccc(Cl)cc1 [compound 49] | – | – | – | – | – | – | 100 | 94 | 99 | 99 | 98 | 100 | –
18 | CSc1ccc(F)c(-c2c(Cl)nc(Br)n2-c2ccc(Cl)cc2)c1F [compound 231] | 61 | 99 | 96 | 98 | 87 | 100 | – | – | – | – | – | – | –
19 | COc1cc(F)c(-c2c(Cl)ncn2-c2ccc(Cl)cc2)c(Cl)c1 [compound 132] | – | – | – | – | – | – | 98 | 92 | 74 | 97 | 94 | 0 | –
20 | Fc1cccc(F)c1-c1c(Cl)nc(Cl)n1-c1cccc(Cl)c1 [compound 222] | 99 | 99 | 97 | 98 | 99 | 0 | – | – | – | – | – | – | –
21 | COc1cc(F)c(-c2c(Cl)nc(Cl)n2-c2ccc(C)cc2)c(F)c1 [compound 146] | – | – | – | – | – | – | 100 | 100 | 100 | 100 | 99 | 100 | –
22 | COc1cc(F)c(-c2c(-c3cccc(F)c3)c(C)nn2C)c(F)c1 [compound 78] | – | – | – | – | – | – | 100 | 92 | 99 | 100 | 91 | 0 | –
23 | CCOc1cc(F)c(-c2c(Cl)nc(C)n2-c2ccc(Cl)cc2)c(F)c1 [compound 156] | – | – | – | – | – | – | – | – | – | – | – | – | Test D disease control rating [1, 8]: 100* %; Test G disease control rating [2, 8]: 97* %; Test I disease control rating [3, 8]: 97* %; Test J disease control rating [4, 8]: 99* %; Test C disease control rating [5, 8]: 98* %; Test F disease control rating [6, 8]: 99* %
24 | Fc1cccc(F)c1-n1cnc(Br)c1-c1ccc(Cl)cc1 [compound 200] | 0 | 45 | 0 | 21 | 0 | 0 | – | – | – | – | – | – | –
25 | CN(C)c1ncn(Cc2ccc(Cl)cc2)c1-c1c(F)cccc1F [compound 99] | – | – | – | – | – | – | 0 | 25 | 91 | 0 | 0 | 0 | –
26 | Cc1ccc(F)c(-c2c(Cl)nc(Br)n2-c2ccc(Cl)cc2)c1F [compound 105] | – | – | – | – | – | – | 99 | 94 | 99 | 100 | 98 | 94 | –
27 | COc1cc(F)c(-c2c(Cl)nc(Cl)n2-c2ccc(Cl)cc2)c(F)c1 [compound 239] | 100 | 96 | 99 | 100 | 100 | 100 | – | – | – | – | – | – | –
